According to patent US20250230193A1, “CYCLIC COMPOUND HAVING SELECTIVE KRAS INHIBITORY EFFECT ON HRAS AND NRAS” (CHUGAI SEIYAKU KABUSHIKI KAISHA, priority 2022, published 2025):
Where a SMILES comes first, the peptide text is derived from it. Bridges are numbered along the chain shown (N, C = ends). [ ]: non-standard residue; d: D form. The star is where a group is joined. hPhe(3-Cl-4-CF3) = N[C@@H](CCc1ccc(C(F)(F)F)c(Cl)c1)C(=O)O; NPrPhe(4-CF3) = CCCN[C@@H](Cc1ccc(C(F)(F)F)cc1)C(=O)O; NEtPhe(4-Me) = CCN[C@@H](Cc1ccc(C)cc1)C(=O)O; NMeGly(cPent) = CN[C@H](C(=O)O)C1CCCC1; NMeD = CN[C@@H](CC(=O)O)C(=O)O; NMeL = CN[C@@H](CC(C)C)C(=O)O; Pip = O=C(O)[C@@H]1CCCCN1; Morpholide = C1CN(*)CCO1; NMeAib = CNC(C)(C)C(=O)O; Nle = CCCC[C@H](N)C(=O)O; Piperidide = C1CCN(*)CC1; Ac5c = NC1(C(=O)O)CCCC1; Aze = O=C(O)[C@@H]1CCN1; Ac4c = NC1(C(=O)O)CCC1; NPrGly = CCCNCC(=O)O; Sar = CNCC(=O)O

Tests used:
[1] = target: GDP-bound HRAS wild-type protein (Homo sapiens, UniProt P01112); experiment: Binding to HRAS by surface plasmon resonance (SPR), Single Cycle Kinetics; settings: SPR; for HRAS/KRAS (ratio of KD value with respect to HRAS to KD value with respect to KRAS): GDP-bound HRAS wild-type vs GDP-bound KRAS wild-type
GDP-bound HRAS wild-type protein, sequence (P01112 whole entry): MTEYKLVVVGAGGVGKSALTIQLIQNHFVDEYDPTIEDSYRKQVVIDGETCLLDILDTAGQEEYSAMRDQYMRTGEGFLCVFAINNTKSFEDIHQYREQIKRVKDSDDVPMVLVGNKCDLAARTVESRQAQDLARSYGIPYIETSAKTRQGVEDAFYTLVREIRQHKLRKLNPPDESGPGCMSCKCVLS

[2] = target: GDP-bound NRAS wild-type protein (Homo sapiens, UniProt P01111); experiment: Binding to NRAS by surface plasmon resonance (SPR), Single Cycle Kinetics; settings: SPR; for NRAS/KRAS (ratio of KD value with respect to NRAS to KD value with respect to KRAS): GDP-bound NRAS wild-type vs GDP-bound KRAS wild-type
GDP-bound NRAS wild-type protein, sequence (P01111 whole entry): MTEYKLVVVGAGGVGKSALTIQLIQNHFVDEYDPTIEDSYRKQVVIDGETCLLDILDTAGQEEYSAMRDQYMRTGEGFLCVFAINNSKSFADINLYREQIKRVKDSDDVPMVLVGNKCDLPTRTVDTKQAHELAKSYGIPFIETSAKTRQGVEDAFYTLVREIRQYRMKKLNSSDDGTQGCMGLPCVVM

Structure (SMILES)	HRAS/KRAS (ratio of KD for GDP-bound HRAS wild-type to KD for KRAS) ([1]; KD ratio HRAS/KRAS)	NRAS/KRAS (ratio of KD for GDP-bound NRAS wild-type to KD for KRAS) ([2]; KD ratio NRAS/KRAS)	other results
CCO[C@@H]1C[C@H]2C(=O)NC3(CCC3)C(=O)N(C)[C@@H](C(C)C)C(=O)N(C)[C@H](C(=O)N(C)C)CC(=O)N(C)[C@@H](CC)C(=O)N[C@@H]([C@@H](C)CC)C(=O)N(C)CC(=O)N(C)[C@H]3C/C=C\CCN(C3=O)[C@@H](Cc3ccc(C(F)(F)F)cc3)C(=O)N(C)CC(=O)N[C@@H](CCc3cc(F)c(C(F)(F)F)c(F)c3)C(=O)N2C1 [PP1088]			HRAS/KRAS (ratio of KD value with respect to HRAS to KD value with respect to KRAS) ([1]; KD ratio): A (a compound having 10 or more and less than 20 is denoted as A); NRAS/KRAS (ratio of KD value with respect to NRAS to KD value with respect to KRAS) ([2]; KD ratio): A (a compound having 10 or more and less than 20 is denoted as A)
CCCN1C(=O)CN(C)C(=O)CN(C)C(=O)[C@H]([C@@H](C)CC)NC(=O)[C@H](CC(C)C)N(C)C(=O)C[C@@H](C(=O)N2CCOCC2)N(C)C(=O)[C@H](C2CCCC2)N(C)C(=O)C2(CCCC2)NC(=O)[C@@H]2CCCCN2C(=O)[C@H](CCc2ccc(C(F)(F)F)c(Cl)c2)NC(=O)CN(C)C(=O)[C@@H]1Cc1ccc(C(F)(F)F)cc1 [PP0263] ([NMeL]I[Sar][Sar][NPrPhe(4-CF3)][Sar][hPhe(3-Cl-4-CF3)][Pip][Ac5c][NMeGly(cPent)][NMeD]-Morpholide; lactam N-11)	C (A compound having a KD ratio of 0.1 or more and less than 3 is denoted as C)	B (a compound having 3 or more and less than 10 is denoted as B)	
CCCN1C(=O)[C@@H]2CCN2C(=O)CN(C)C(=O)[C@H]([C@@H](C)CC)NC(=O)[C@H](CC(C)C)N(C)C(=O)C[C@@H](C(=O)N(C)C)NC(=O)[C@H](C2CCCC2)N(C)C(=O)C2(CCC2)NC(=O)[C@@H]2CCCN2C(=O)[C@H](CCc2ccc(C(F)(F)F)c(Cl)c2)NC(=O)CN(C)C(=O)[C@@H]1Cc1ccc(C(F)(F)F)cc1 [PP0386] ([NMeL]I[Sar][Aze][NPrPhe(4-CF3)][Sar][hPhe(3-Cl-4-CF3)]P[Ac4c][NMeGly(cPent)]D-NMe2; lactam N-11)	B (a compound having 3 or more and less than 10 is denoted as B)	C (A compound having a KD ratio of 0.1 or more and less than 3 is denoted as C)	
CCO[C@@H]1C[C@H]2C(=O)NC3(CCC3)C(=O)N(C)[C@@H](C3CCCC3)C(=O)N(C)[C@H](C(=O)N(C)C)CC(=O)N(C)[C@@H](CCOC)C(=O)N[C@@H]([C@@H](C)CC)C(=O)N(C)CC(=O)N(C)[C@H]3CCCCN(C3=O)[C@@H](Cc3ccc(C(F)(F)F)cc3)C(=O)N(C)CC(=O)N[C@@H](CCc3cc(F)c(C(F)(F)F)c(F)c3)C(=O)N2C1 [PP0705]			HRAS/KRAS (ratio of KD value with respect to GDP-bound HRAS wild-type protein to KD value with respect to KRAS) ([1]; KD ratio HRAS/KRAS): C (A compound having a KD ratio of 0.1 or more and less than 3 is denoted as C); NRAS/KRAS (ratio of KD value with respect to GDP-bound NRAS wild-type protein to KD value with respect to KRAS) ([2]; KD ratio NRAS/KRAS): C (A compound having a KD ratio of 0.1 or more and less than 3 is denoted as C)
CCCC[C@@H]1NC(=O)[C@H](CCc2ccc(C(F)(F)F)c(Cl)c2)NC(=O)CN(C)C(=O)[C@H](Cc2ccc(C)cc2)N(CC)C(=O)CN(C)C(=O)CN(C)C(=O)[C@H]([C@@H](C)CC)NC(=O)[C@H](CC(C)C)N(C)C(=O)C[C@@H](C(=O)N2CCCCC2)N(C)C(=O)[C@H](CC(C)C)NC(=O)C(C)(C)N(C)C1=O [PP0050] ([NMeL]I[Sar][Sar][NEtPhe(4-Me)][Sar][hPhe(3-Cl-4-CF3)][Nle][NMeAib]L[NMeD]-Piperidide; lactam N-11)	C (A compound having a KD ratio of 0.1 or more and less than 3 is denoted as C)	B (a compound having 3 or more and less than 10 is denoted as B)	
CCCN1CC(=O)N(C)CC(=O)N(CCC)[C@@H](Cc2ccc(C(F)(F)F)cc2)C(=O)N(C)CC(=O)N[C@@H](CCc2ccc(C(F)(F)F)c(Cl)c2)C(=O)N2CCC[C@H]2C(=O)NC2(CCCC2)C(=O)N(C)[C@@H](C2CCCC2)C(=O)N(C)[C@H](C(=O)N2CCOCC2)CC(=O)N(C)[C@@H](CC(C)C)C(=O)N[C@@H]([C@@H](C)CC)C1=O [PP0253] ([NMeL]I[NPrGly][Sar][NPrPhe(4-CF3)][Sar][hPhe(3-Cl-4-CF3)]P[Ac5c][NMeGly(cPent)][NMeD]-Morpholide; lactam N-11)	B (a compound having 3 or more and less than 10 is denoted as B)	B (a compound having 3 or more and less than 10 is denoted as B)	
CCO[C@@H]1C[C@H]2C(=O)NC3(CC(C)(C)C3)C(=O)N(C)[C@@H](C3CCCC3)C(=O)N(C)[C@H](C(=O)N(C)C)CC(=O)N(C)[C@@H](CC)C(=O)N[C@@H]([C@@H](C)CC)C(=O)N(C)CC(=O)N(C)[C@H]3C/C=C\CCN(C3=O)[C@@H](Cc3ccc(C(F)F)cc3)C(=O)N(C)CC(=O)N[C@@H](CCc3cc(F)c(C(F)(F)F)c(F)c3)C(=O)N2C1 [PP2049]			HRAS/KRAS (ratio of KD value with respect to HRAS to KD value with respect to KRAS) [1]: B (a compound having 3 or more and less than 10 is denoted as B); NRAS/KRAS (ratio of KD value with respect to NRAS to KD value with respect to KRAS) [2]: A (a compound having 10 or more and less than 20 is denoted as A)
